Data taken from BigSolDB 2.1.

Clc1ccc(SSc2ccc(Cl)cc2)cc1
Conditions	solubility (mole fraction)
in acetone, 302.95 K	0.102
in acetone, 308.05 K	0.145
in acetone, 313.25 K	0.208
in chloroform, 303.15 K	0.122
in chloroform, 307.95 K	0.174
in chloroform, 312.55 K	0.243
in ethanol, 304.35 K	0.000264
in ethanol, 307.45 K	0.000783
in ethanol, 312.35 K	0.00305
in ethanol, 317.35 K	0.00786
in ethyl acetate, 303.95 K	0.0201
in ethyl acetate, 307.9 K	0.038
in ethyl acetate, 312.35 K	0.0667
in ethyl acetate, 319.05 K	0.117
in methanol, 303.15 K	0.00014
in methanol, 307.65 K	0.00061
in methanol, 314.15 K	0.00259
in methanol, 318.95 K	0.00552
in toluene, 303.2 K	0.0219
in toluene, 307.85 K	0.0446
in toluene, 314.05 K	0.0864
in toluene, 317.55 K	0.114
